# Entries after “also recorded” stand apart in the source; their conditions may differ.
# Experiments:
# PDK2 [1] = target: T1, PDK2 (Homo sapiens, UniProt Q15119)
# PDK2 [2] = target: T1, PDK2; assay: Isothermal titration calorimetry; conditions: ITC, binding to PDK2
# [3] = system: diet-induced obese (DIO) mice; assay: Glucose tolerance test in DIO mice; assay type: in vivo, C57BL/6J male mice (DIO); conditions: 40–45 mg/kg/day, two weeks, p <0.05 at 20, 30, 60 and 120 min
# [4] = system: diet-induced obese (DIO) mice; assay: Oil Red O stain of liver slices; assay type: in vivo, C57BL/6J male mice (DIO); conditions: 40–45 mg/kg/day by mini pumps, two weeks
# PDC activity = PDC activity in tissues of treated diet-induced obese mice; assay type: in vivo, C57BL/6J male mice (DIO); conditions: DIO mice, 40–45 mg/kg/day by osmotic mini-pumps, two weeks
# [5] = system: phosphorylated E1α subunit (pE1); assay: Western blot of phosphorylated E1α in liver homogenates of treated DIO mice; assay type: in vivo, C57BL/6J male mice (DIO); conditions: 40–45 mg/kg/day by osmotic mini-pumps, two weeks
# [6] = 17 at 30 mg/kg vs 2 at 70 mg/kg IP
compound,measurement,setting,value
Nc1ccc2c(c1)CN(S(=O)(=O)c1ccc(O)cc1O)C2 [Compound 3],fold higher IC50 than 1,"PDK2 [1]; PDK2, relative to 1",2 fold
"O=S(=O)(c1ccc(O)cc1O)N1Cc2ccc(O)cc2C1 [Compound 1, 4-((5-hydroxyisoindolin-2-yl)sulfonyl)benzene-1,3-diol]",–TΔS,PDK2 [2],5.54 kcal/mol
"O=S(=O)(c1ccc(O)cc1O)N1Cc2ccc(NC3CCNCC3)cc2C1 [Compound 5, 4-((5-(piperidin-4-ylamino)isoindolin-2-yl)sulfonyl)benzene-1,3-diol]",–TΔS,PDK2 [2],4.64 kcal/mol
"NC(=O)C[C@H](N)C(=O)N1CCC(Nc2ccc3c(c2)CN(S(=O)(=O)c2ccc(O)cc2O)C3)CC1 [Compound 17, (S)-3-amino-4-(4-((2-((2,4-dihydroxyphenyl)sulfonyl)isoindolin-5-yl)amino)piperidin-1-yl)-4-oxobutanamide]",glucose tolerance over vehicle-treated mice,[3],increases glucose tolerance
same,hepatic fat / steatosis (Oil Red O),[4],drastically reduced hepatic steatosis; also recorded: microvesicular
same,PDC activation in heart and muscle,PDC activity,no PDC activation
same,increase of PDC activity in liver compared to the vehicle control,PDC activity,about 6 fold
same,gain in enthalpy change (ΔH) compared to 5,PDK2 [2],3.4 kcal/mol
same,loss in entropy compared to 5,PDK2 [2],2.7 kcal/mol
same,fold lower IC50 than 2,"PDK2 [1]; PDK2, relative to 2",~ 8 fold
same,fold better IC50 than 5,"PDK2 [1]; PDK2, relative to 5",3.4 fold
same,phosphorylation of the E1α subunit (pE1) in the liver homogenate,[5],decreased phosphorylation
same,fold higher AUClast in liver than 2,[6],> 10 fold
same,fold lower AUClast in muscle than 2,[6],> 10 fold
same,fold slower unit-time clearance (CL/F) in liver than 2,[6],> 30 fold
"O=S(=O)(c1ccc(O)cc1O)N1Cc2cc(O)cc(O)c2C1 [Compound 2, 2-((2,4-dihydroxyphenyl)sulfonyl)isoindoline-4,6-diol]",–TΔS,PDK2 [2],6.57 kcal/mol

# — paper PMC5996997 (Journal of medicinal chemistry, 2017)
